The values that follow are results of earlier work, collected in patent publication US20230181491A1, “COMPOSITIONS AND METHODS FOR THE TREATMENT AND MANAGEMENT OF INFLAMMATION USING HYDROXYNORKETAMINE” (SPIRIFY PHARMA INC., priority 2020, published 2023).

Where a name gives a salt, the structure may show the parent alone.

The test system of this series is rats. To be noted: cited from earlier work.

For the molecule `NC1(c2ccccc2Cl)CCCCC1=O` (racemic) [(R,S)-norketamine], the “spontaneous locomotor activity during the postanesthetic recovery phase” value is on record as “increased spontaneous locomotor activity”.

For `CNC1(c2ccccc2Cl)CCCCC1=O` (racemic) [(R,S)-ketamine hydrochloride], the “spontaneous locomotor activity during the postanesthetic recovery phase” value is on record as “increased spontaneous locomotor activity”.

Turning to (2R,6R;2S,6S)-HNK, the “spontaneous locomotor activity during the postanesthetic recovery phase” value was “no anesthetic or hyperlocomotor effects”.
